In patent US20240238284A1, “COMPOUNDS AND COMPOSITIONS FOR THE TREATMENT OF MPNST” (Novartis AG, priority 2021, published 2024):

Tests used:
[1] = tested on: Rb-positive cell lines derived from diverse cancer types; assay: Rb phosphorylation and cell cycle progression in Rb-positive cell lines; assay type: cell-based; details: more than 40 Rb-positive cell lines
[2] = tested on: p-ERK in WU-386 tumors; assay: pharmacodynamic p-ERK levels in WU-386 PDX tumors; assay type: in vivo, mice; details: WU-386 tumors collected 4-hour post end-point treatment (4 weeks)
[3] = tested on: ten native NF1-MPNST cell lines; assay: cell number by trypan blue exclusion, native NF1-MPNST cell lines; assay type: cell-based; details: TNO155 0.3, 1, 3 μM; ribociclib 1, 3 μM; about 1 week
From the text: (§1) Cell numbers were counted using trypan blue exclusion assay (Sigma-Aldrich) and normalized to the DMSO control.

[4] = tested on: trametinib resistant lines (ST8814Res and NF90.8Res); assay: cell number by trypan blue exclusion, trametinib resistant lines; assay type: cell-based; details: TNO155 0.3, 1, 3 μM, ribociclib 1, 3 μM, about 1 week
From the text: as §1

[5] = tested on: NF1-MPNST PDX models; assay: tumor growth in NF1-MPNST patient-derived xenograft (PDX) models in NRG mice; assay type: in vivo; details: oral gavage, TNO155 7.5 mg/kg, ribociclib 75 mg/kg once daily, up to 42 days
Protocol: The PDX models of Example 1 were developed and characterized according to Dehrner, et al., JCI Insight 2021: 6(6):e146351 and Pollard, K., et al., Sci Data, 2020; 7:184). NRG (NOD-Rag1^null IL 2rg^null, NOD rag gamma) mice are used for all experiments.
Tumor response, survival and toxicity data were collected and analyzed. To form tumors, 1-2 million NF1-MPNST PDX-derived cells (JH-2-031, JH-2-079, JH-2-002, WU-225, WU-386, or WU-545)) in 50% Matrigel (BD Biosciences) were injected subcutaneously in 4- to 6-week-old female NRG mice. The tumors were measured and mice weighed twice weekly once tumors began to form. Drugs were given beginning when tumors reached 150-200 mm^3. Mice were treated with vehicle, single agent (A or B or C) or combination (A+B or B+C) for up to 42 days. Each group consisted of three to five mice. Tumor volume was calculated using the formula: V=L×W2 (π/6), where L=longest diameter and W=width.

| Structure (SMILES) | Retinoblastoma protein (Rb) phosphorylation and G1 to S phase cell cycle progression [1] | p-ERK levels in tumors [2] | cell number response normalized to DMSO control [3] | cell number response normalized to DMSO control [4] | anti-tumor activity / tumor growth inhibition in PDX models [5] |
| --- | --- | --- | --- | --- | --- |
| CN(C)C(=O)c1cc2cnc(Nc3ccc(N4CCNCC4)cn3)nc2n1C1CCCC1 [Ribociclib, 7-cyclopentyl-N,N-dimethyl-2-((5-(piperazin-1-yl)pyridin-2-yl)amino)-7H-pyrrolo[2,3-d]pyrimidine-6-carboxamide] | inhibited Retinoblastoma protein (Rb) phosphorylation and interfered with G1 to S phase cell cycle progression | – | – | – | – |
| C[C@@H]1OCC2(CCN(c3cnc(Sc4ccnc(N)c4Cl)c(N)n3)CC2)[C@@H]1N [TNO155, (3S,4S)-8-(6-amino-5-((2-amino-3-chloropyridin-4-yl)thio)pyrazin-2-yl)-3-methyl-2-oxa-8-azaspiro[4.5]decan-4-amine] | – | decrease in p-ERK levels | partial sensitivity | limited activity | substantial anti-tumor activity as a single agent |
